Source: patent US11506670B2, “Method of genome-wide direct identification of electrophile-sensing targets” (Cornell University, priority 2018, dated 2022)

Experiments:
[1] = test system: DNA synthesis in HEK293T cells; assay: EdU/BrdU dual-pulse DNA-replication efficiency assay; assay type: cell-based, human; conditions: wt-Ube2V2 cells, post T-REX
Method: 4.8×10^5 cells were plated in glass-bottomed dishes (In Vitro Scientific) and allowed to grow for 24 h. Cells were transfected with the indicated plasmid and allowed to grow for another 24 h. Cells were then treated with 3 μM Ht-PreHNE no alkyne for 2.5 h followed by two rinses with serum-free medium. After this time, 20 μM EdU (final concentration) was added into cell culture media for 30 min before the 3rd rinse. The cells were rinsed another two times before light shining. 2.5 h post light irradiation, cells were treated with 50 μM BrdU for 30 min at 37° C. Then the cells were fixed with −20° C. pre-chilled MeOH for 20 min and then carried on to immunofluorescence assay as described elsewhere.
Whether DNA-synthesis stall (that occurs in response to many DNA damage events) accompanies C69-specific Ube2V2-HNEylation was investigated. A dual-pulse assay was used, which involves sequential, timed pulsing with two orthogonal DNA-labeling agents (EdU, followed by BrdU) that can be detected by fluorescence imaging (FIG. 13D). This assay is very accurate, because DNA-synthesis is measured over a defined time range, allowing a good estimate of synthesis-rate to be determined.

Ube2V2 = Ube2V2 (Homo sapiens, UniProt Q15819); assay: T-REX in zebrafish embryos, biotin/streptavidin pulldown of HNEylated Ube2V2; assay type: in vivo; conditions: human Halo-Ube2V2 mRNA-injected embryos
Chain of Ube2V2 (Q15819 whole entry): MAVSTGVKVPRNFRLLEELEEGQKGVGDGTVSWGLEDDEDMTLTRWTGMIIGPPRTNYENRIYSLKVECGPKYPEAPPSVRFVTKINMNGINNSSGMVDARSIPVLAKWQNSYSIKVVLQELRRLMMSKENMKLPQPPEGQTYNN
Method: Zebrafish cell lysis was performed with similar procedure as mammalian cells: 50 mM HEPES (pH 7.6), 150 mM NaCl, 1% Nonidet P-40, 0.2 mg/ml soybean protease inhibitor (Sigma), and 3× Roche cOmplete, mini, EDTA-free protease inhibitor cocktail by rapid freeze-thaw and votexing with zirconia beads (Bio spec 0.7 mm beads; 11079107zx).
Total protein concentration from either mammalian cell lysate or zebrafish lysate was determined using Bradford assay with BSA as standard. The lysate was subsequently diluted to 2 mg/mL with a buffer made up of 50 mM HEPES (pH 7.6) and 0.3 mM TCEP, and subjected to Click reaction with biotin azide for 30 min at 37° C. The final concentrations of each components were: 1% SDS, 5% t-BuOH, 200 μM Biotin azide, 2 mM TCEP, 0.9 mM CuSO4 and 0.1 mM Cu(TBTA). The lysate proteins were precipitated by adding 4 volumes of EtOH pre-chilled at −20° C. (EtOH final concentration is 80%). The sample was vortexed and incubated at −80° C. overnight (or at least 4 h) to facilitate precipitation. The precipitant was collected by centrifugation at 21,000×g for 120 min at 4° C. and washed twice with pre-chilled MeOH, once with pre-chilled acetone. […]
DDR preconditioning occurs in zebrafish embryos. […] Subsequently, the fish were fixed and γ-H2AX levels were measured using whole-mount immunofluorescence.

Ube2N = molecular target: T1, Ube2N (Homo sapiens, UniProt P61088); assay: Biotin azide/streptavidin pulldown of HNEylated proteins from mammalian lysate; assay type: cell-based; conditions: HEK293T, Halo-(FLAG)-Ube2V2 and HA-Ube2N
T1 construct: expressed in transfected cells; host or cells: HEK 293T
T1 sequence (P61088 whole entry): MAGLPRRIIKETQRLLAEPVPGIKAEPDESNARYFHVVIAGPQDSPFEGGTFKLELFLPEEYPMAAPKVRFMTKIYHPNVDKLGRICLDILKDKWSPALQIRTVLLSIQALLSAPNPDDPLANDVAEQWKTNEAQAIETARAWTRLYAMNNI
T1 sequence (Q15819 whole entry partner): as the sequence (Q15819 whole entry) above
Method: HEK 293T cells were seeded in 60 cm^2 plate. After the cells reached 60% confluence (˜18-24 h), the old media were replaced with fresh 8 mL complete media. Cells were transfected with 7.5 μg of the designated plasmids encoding the HaloTag fusion gene and 30 μL PEI (1 mg/mL) in 600 μL in Opti-MEM media for 24-36 h after which the cells were treated with 25 μM Ht-PreHNE or without alkyne (control) for 2.5 h. Rinsing and light shining protocol were as described above. Cells were harvested, washed twice with chilled 1× DPBS and flash frozen.
Mammalian cell lysis was performed in 200 μL of lysis buffer containing in final concentrations 50 mM HEPES (pH 7.6), 150 mM NaCl, 1% Nonidet P-40 and 1× Roche cOmplete, mini, EDTA-free protease inhibitor cocktail by rapid freeze-thaw (×3). Lysate was clarified by centrifugation at 18,000×g for 30 min at 4° C.
Total protein concentration from either mammalian cell lysate or zebrafish lysate was determined using Bradford assay with BSA as standard. The lysate was subsequently diluted to 2 mg/mL with a buffer made up of 50 mM HEPES (pH 7.6) and 0.3 mM TCEP, and subjected to Click reaction with biotin azide for 30 min at 37° C. The final concentrations of each components were: 1% SDS, 5% t-BuOH, 200 μM Biotin azide, 2 mM TCEP, 0.9 mM CuSO4 and 0.1 mM Cu(TBTA). The lysate proteins were precipitated by adding 4 volumes of EtOH pre-chilled at −20° C. […]

In the case of CCCCCC(O)/C=C/C=O (stereo not drawn) [HNE, 4-hydroxynonenal], the DNA-synthesis stall [1] is reported as “the extent of DNA-synthesis stall was similar to that observed under mitomycin-C treatment”, the “HNEylation of Ube2V2 in zebrafish” value (Ube2V2) is reported as “significantly HNEylated” and the “HNEylation of Ube2N during T-REX delivery to Ube2V2 (affinity capture)” value (Ube2N) is reported as “no detectable HNEylation of Ube2N”.
